Measurements taken from patent publication US5587490A, “Method of inactivation of viral and bacterial blood contaminants” (Credit Managers Association of California, priority 1993, dated 1996).
Like-named read-outs stand apart in the source and are kept apart here.

How the values were obtained:
platelets [1] = format: cell-based, human
Procedure: (§1) Human platelet concentrates are mixed with phi 6 bacteriophage, with or without sensitizer, then exposed to U.V. light. Cell quality assays after treatment include morphology score conducted by visual inspection using a light microscope (using a Kunicki scoring system), hypotonic shock response (HSR), aggregation response induced by addition of ADP measured in an aggregometer, and cell number count.
(§2) 1. Soft spin platelet unit at 1000 rpm for 5 min to remove RBC.
(§3) 2. Dilute concentrated platelets with spun autologous plasma to obtain a conc. of 500×10^6 cells/ml.
(§4) 3. Add 5×10^6 of .phi.6 to the platelet suspension and mix gently.
(§5) 4. Add sensitizer to the platelet suspension and incubate for 15 min while protecting from light. Control samples have PBS added.
(§6) 5. Pipet 2 ml aliquots into small plastic petri dishes and irradiate with UV while rotating samples at 100 rpm on a shaker. Irradiate samples without cover.
(§7) 6. Transfer irradiated samples to 15 ml plastic centrifuge tubes.
(§8) 7. Determine morphology, HSR, ADP, Viral inactivation, cell count.
The vital inactivation values and in vitro properties of platelets subjected to viral inactivation treatment using various derivatives of psoralen are summarized in Table 1.
(§9) Single unit platelet concentrates were obtained 24 hours after collection from certified blood banks. The platelet were subjected to soft spin to remove residual RBC and about 6 logs of .phi.6 phage and sensitizer 8B were added in PBS solution to obtain 0.03 mg/mL final sensitizer concentration. The samples were transferred to Stericon™ polyolefin bag (which transmits 60% of UVA light) and irradiated from top (3.6 mW/cm^2) and bottom (3.4 mW/cm^2) in a home made reactor for 10 min. The bags were continuously mixed on extended glass platform attached to orbital shaker. The viral inactivation values and in vitro properties of platelet concentrates were monitored for 2 days after the treatment.

[2] = test system: Salmonella typhimurium TA1535; experiment: Ames mutagenicity plate incorporation assay, TA1535; format: cell-based; details: average of duplicate plates
[3] = test system: Salmonella typhimurium TA98; experiment: Ames mutagenicity plate incorporation assay, TA98; format: cell-based; details: average of duplicate plates
phi 6 bacteriophage = experiment: UV inactivation of phi 6 in platelet preparations; format: cell-based; details: for log reduction at 30 µg/mL: Bacteriophage sp., Platelet, light or radiation study, 10 min
Procedure: as §1, §2, §3, §4, §5, §6, §7, §8
To test the viral inactivation efficiency of brominated sensitizers, platelet preparations (2 mL, PRP) were spiked with .phi.6 phage and brominated psoralen (8B) and non-brominated psoralen(8C) were added to obtain final sensitizer concentration of 0.1 mg/mL. The samples were exposed to UVA light in a home made reactor consisting of 4 UVA lamps for the indicated time periods. The petri dishes containing samples were mixed on an orbital shaker during UVA exposure. The UVA light intensity at the sample position was measured at 3.3 mW/cm^2. The residual viral titer after each time point was measured by plaque method The viral reduction values are illustrated in FIG. 26.
Single unit platelet concentrates were obtained 24 hours after collection from certified blood banks. […] The viral inactivation values and in vitro properties of platelet concentrates were monitored for 2 days after the treatment.

[4] = test system: Salmonella typhimurium TA1538; experiment: Ames mutagenicity plate incorporation assay, TA1538; format: cell-based; details: average of duplicate plates
[5] = test system: Salmonella typhimurium TA100; experiment: Ames mutagenicity plate incorporation assay, TA100; format: cell-based; details: average of duplicate plates
phi 6 phage [6] = experiment: UVA inactivation of phi 6 in packed red cells; format: cell-based
Procedure: Units of packed red cells were transferred to Stericon™ red cell freezing bags and the hematocrits were adjusted to 60% with PBS. […] The samples were mixed continuously during UVA exposure on an orbital shaker. The final viral titer in the sample was determined by the plaque method. In vitro biochemical and biophysical properties of treated red cells were monitored for 7 day following the treatment.
The viral inactivation kinetics in red cells is dependent on the intensity of the UVA light source. The data in Table 4 below indicate that the time required to achieve 6 logs of viral reduction varies with the intensity of the UVA light source used.

platelet concentrates = experiment: pH of platelet concentrates after UV treatment; format: cell-based, human; details: Treated, UVA 10 min
Procedure: as §9

red cells = experiment: Red cell in vitro properties following UVA viral inactivation treatment; format: cell-based, human; details: 0.3 mg/mL
Procedure: Units of packed red cells were transferred to Stericon™ red cell freezing bags and the hematocrits were adjusted to 60% with PBS. The samples were spiked with 5×10^6 PFU/mL .phi.6 phage and 0.3 mg/mL sensitizer 8B. The contents of the bag was exposed to UVA light from top (3.6 mW/cm^2) and bottom (3.4 mW/cm^2) for 6 hours (151.2 J/cm^2). The samples were mixed continuously during UVA exposure on an orbital shaker. The final viral titer in the sample was determined by the plaque method. In vitro biochemical and biophysical properties of treated red cells were monitored for 7 day following the treatment.

salmonella mutants = experiment: Standard Ames mutagenicity test, overall outcome; format: cell-based, Salmonella typhimurium; details: 0.6 mg/mL; in words
bacterial phage λ = experiment: UV inactivation of lambda phage in plasma or fetal bovine serum; format: cell-based; details: Escherichia phage Lambda, light or radiation study, 0.5 h; Fetal bovine serum, 0.03 mg/mL, UVA 30 min. (8.4 J/cm^2); read-out: Viral Reduction (log), λ
Procedure: A stock solution of bacterial phage λ is added to plasma to obtain final titre of 1.2×10^8 PFU/ml and compound No. 3 (structure given above) at 0.1 mg/ml concentration. The mixture was transferred to Pyrex glass photolysis cells and exposed to UV (300-360 nm blue lamp) for 5 minutes. After UV irradiation treatment the final viral titre and Factor VIII activity were measured as described earlier. […] About 3-6 logs of increased viral inactivation was obtained with protein coated viruses using a sensitizer. Only 10% of Factor VIII activity was recovered after viral inactivation treatment.
(§10) Viral inactivation in FBS was carried out in 100 mL serum samples in 225 cm^2 tissue culture flask in the presence of sensitizer 8B (0.03 mg/mL). The sample was exposed to UVA light from top (3.6 mW/cm^2) and bottom (3.4 mW/cm^2) while continuously mixing on an orbital shaker for 30 min. (8.4 J/cm^2). Human plasma was irradiated in a Pyrex glass photolysis cell in the presence of sensitizer 8 (0.1 mg/mL) for 5 min. Inactivation of various bacteriophages were carried out using brominated psoralens in combination with UVA light. The results in Table 5 below clearly indicate that 5-7 logs of viral reduction was obtained with various phage (enveloped and non-enveloped) in human plasma fractions and fetal bovine serum products.

phi 6 phage [7] = experiment: UV inactivation of phi 6 in human plasma or fetal bovine serum; format: cell-based; details: light or radiation study, 0.5 h; Fetal bovine serum, 0.03 mg/mL, UVA 30 min. (8.4 J/cm^2); read-out: Viral Reduction (log), phi 6
Procedure: as §10

[8] = test system: Salmonella typhimurium TA1537; experiment: Ames mutagenicity plate incorporation assay, TA1537; format: cell-based; details: average of duplicate plates
platelets [9] = experiment: Platelet cell count after UV treatment; format: cell-based, human; details: Treated, UVA 10 min
Procedure: as §9

SMILES: CC[N+](CC)(CC)CCCOc1c2occc2c(Br)c2ccc(=O)oc12 [Sensitizer 8B]
- ADP Agg. (platelets [1]): 26 ± 10
- Number of Revertant Colonies ([2]; w/S-9): 197
- Number of Revertant Colonies ([2]; without S-9): 173
- Number of Revertant Colonies ([3]; w/S-9): 83
- Number of Revertant Colonies ([3]; without S-9): 55
- fold improvement in the level of viral inactivation, brominated (8B) vs non-brominated (8C) (phi 6 bacteriophage; 0.1 mg/mL, UVA 3.3 mW/cm^2): ≤ 400 fold
- log reduction at 30 µg/mL (phi 6 bacteriophage; read-out: V.I (log10)): 5.3
- log reduction at 30 µg/mL (phi 6 bacteriophage; read-out: viral reduction): > 5.3
- Number of Revertant Colonies ([4]; w/S-9): 25
- Number of Revertant Colonies ([4]; without S-9): 22
- Number of Revertant Colonies ([5]; w/S-9): 245
- Number of Revertant Colonies ([5]; without S-9): 164
- Time Required for 6.0 logs V.I. (phi 6 phage [6]; UV Reactor 1, Top, 3.3 mW/cm^2, 0.1 mg/mL, n = 1): 16.4 Hours
- Time Required for 6.0 logs V.I. (phi 6 phage [6]; UV Reactor 2, Top + Bottom, 3.6/3.4 mW/cm^2, 0.1 mg/mL, n = 9): 7.0 ± 1.2 Hours
- Time Required for 6.0 logs V.I. (phi 6 phage [6]; UV Reactor 3, Top + Bottom, 40/40 mW/cm^2, 0.1 mg/mL, n = 3): 1.3 ± 0.4 Hours
- pH (platelet concentrates; 0 Hour): 7.2
- pH (platelet concentrates; 24 Hours): 7.1
- pH (platelet concentrates; 48 Hours): 6.8
- alterations in in vitro biochemical and biophysical properties (red cells; UVA 6 hours, in words): without any significant alterations in in vitro biochemical and biophysical properties
- % Hemochrome (red cells; Treated, Day 1, UVA 6 hours): 1.9%
- DI Max % control (deformability index) (red cells; Treated, Day 1, UVA 6 hours): 97.4 % control
- MCV (red cells; Treated, Day 1, UVA 6 hours (151.2 J/cm^2)): 88.8
- % Hemochrome (red cells; Treated, Day 2, UVA 6 hours): 0.6%
- DI Max % control (deformability index) (red cells; Treated, Day 2, UVA 6 hours): 99.6 % control
- % Hemochrome (red cells; Treated, Day 7, UVA 6 hours): 0.2%
- DI Max % control (deformability index) (red cells; Treated, Day 7, UVA 6 hours): 99.0 % control
- Ames mutagenicity (salmonella mutants): non-mutagenic
- log reduction at 30 µg/mL (bacterial phage λ): 6.6
- log reduction at 30 µg/mL (phi 6 phage [7]): 6.5
- Number of Revertant Colonies ([8]; w/S-9): 26
- Number of Revertant Colonies ([8]; without S-9): 36
- Cell count (platelets [9]; 0 Hour): 474
- Cell count (platelets [9]; 24 Hours): 499
- Cell count (platelets [9]; 48 Hours): 506
